Square brackets hold non-standard residues; d marks the D form. Ends that are not written are not given here.
Key:
Hela cells = test: Internalization of r3-L-TAT-derived transporters in Hela cells; format: cell-based; details: 2, 6 or 24 hours; 0, 500 nM, 1 mM or 10 mM
Excerpt: The time dependant internalization (uptake) of FITC-labeled TAT derived transporter constructs into cells of the HL-60 cell line was furthermore carried out with materials and methods as described above using sequences of the 96-FITC-labeled D-TAT derivative transporters. These sequences are listed below.
• In the above table D amino acids are indicated by a small “d” prior to the respective amino acid residue (e.g. dR=D-Arg). • For a few sequences synthesis failed in the first approach unfortunately due to technical reasons. […] Hela cells were incubated 24 hours in 96 well plate with […] of the r3-L-TAT-derived transporters. Alternatively, human lymphoma cells are used. The cells were then washed twice with an acidic buffer (0.2M Glycin, 0.15M NaCl, pH 3.0) and twice with PBS. Cells were broken by the addition of RIPA lysis buffer. […] Briefly, Hela cells were incubated 2, 6 or 24 hours in 24 well plate with increasing dose of the r3-L-TAT-derivative transporters (0, 500 nM, 1 mM or 10 mM). The cells were then washed twice with an acidic buffer (0.2M Glycin, 0.15M NaCl, pH 3.0) and twice with PBS. Cells were broken by the addition of RIPA lysis buffer.

U937 cells = test: Intracellular concentration of transporter constructs subsequent to uptake into U937 cells; format: cell-based; details: for intracellular concentration of transporter construct subsequent to uptake: U937 cells, 10 μM construct
Procedure: 9. Determination of Intracellular Concentration of Specific Transporter Constructs Subsequent to Uptake (Internalization) of these Peptides into U937 Cells • According to a further experiment, the concentration of specific transporter constructs subsequent to uptake (internalization) of these peptides into U937 cells were determined.

Lymphocytes T (CD3) = test: Flow cytometry of FITC-transporter content in primary human white blood cells: lymphocytes T; format: cell-based; details: 1 uM, 30 min
Excerpt: (§1) Primary human white blood cells (WBC) were obtained from whole blood after red blood cell lysis. […] Cells containing D-TAT-FITC and r3-L-TAT-FITC were finally analysed by flow cytometry to measure their respective transporter content.

U937 lymphoma cells = test: Uptake (internalization) of FITC-labeled TAT derived transporter constructs in U937 cells, fluorescence plate reader; format: cell-based
Procedure: Cells were plated into poly-DL-lysine coated dishes at a concentration of 1×10^6 cells/ml. Plates were then incubated for 24 h at 37° C., 5% CO2, and 100% relative humidity prior to the addition of a known concentration of peptide. After peptide addition, the cells were incubated 30 min, 1, 6 or 24 h at 37° C., 5% CO2, and 100% relative humidity. Cells were then washed twice with an acidic buffer (Glycin 0.2 M, NaCl 0.15 M, pH 3.0) in order to remove the cell-surface adsorbed peptide (see Kameyama et al., (2007), Biopolymers, 88, 98-107). […] The cell wash using an acidic buffer was thus employed to remove the cell-surface adsorbed peptides. […] Cells were broken by the addition of the RIPA lysis buffer. The relative amount of internalized peptide was then determined by fluorescence after background substraction and protein content normalization. • The steps are thus: 1. […] Analysis of peptide internalization with a fluorescence plate reader • f) Cell Culture and Peptide Treatment • (1) The 6 well culture plates are coated with 3 ml of Poly-D-Lys (Sigma P9011; 25 μg/ml in PBS), the 24 well plates with 600 μl and the 96 well plates with 125 μl and incubated for 4 h at 37° C., CO2 5% and 100% relative humidity. • (2) After 4 hours the dishes were washed twice with 3.5 ml PBS, 700 μl or 150 μl PBS for the 6, 24 or 96 well plates, respectively. • (3) The cells were plated into the dishes in 2.4 ml medium (RPMI) at plating densities of 1′000′000 cells/ml for suspension cells. After inoculation, the plates were incubated at 37° C., 5% CO2 and 100% relative humidity for 24 hours prior to the addition of the peptide. Adherent cells should be at a density of 90-95% the day of treatment and were plated in DMEM :
• (4) The cells were treated with the desired concentration of FITC labeled peptide (stock solution at a concentration of 10 mM in H2O). • (5) Following peptide addition, the cells were incubated 0 to 24 hours (e.g. 30 min, 1, 6 or 24 hours) at 37° C., CO2 5% and 100% relative humidity. • Acidic Wash and Cellular Extracts: • (6) The extracts were cooled on ice. • Suspension cells (or cells, which don attach well to the dish): • Transfer the cells in ? […] To recover the maximum of cells, wash the dish with 1 ml of PBS. • Harvest the cells 2 min at 2400 rpm max. • Suspend the cells in 1 ml cold PBS. • Transfer the cells into a coated “Eppendorf tube” (coated with 1 ml of poly D-Lys for 4 hours and washed twice with 1 ml PBS). • Wash three times with 1 ml of cold acidic wash buffer and centrifuge 2 min at 2400 rpm max. Beware of the spreading of the cells in the “eppendorf”. • Wash twice with 1 ml cold PBS to neutralize. • Add 50 μl of lysis RIPA Buffer. • Incubate 30 min-1 h on ice with agitation. • Adherent Cells: • Wash three times with 3 ml, 1 ml or 200 μl (for 6, 24 or 96 well plates, respectively) of cold acidic wash buffer. Beware of the cells who detach from the dish. • Wash twice with 1 ml cold PBS (for 6, 24 or 96 well plates, respectively) to neutralize. • Add 50 μl of lysis RIPA buffer. • Incubate 30 min-1 h on ice with agitation. • Scrap the cells with a cold scrapper. The 24 and 96 well plates were directly centrifuged at 4000 rpm at 4° for 15 min to remove the cellular debris. Then the supernatants (100 or 50 ml respectively for the 24 or 96 well plates) were directly transferred in a dark 96 well plated.

[1] = tested on: HepG2 hepatocarcinoma, HCT-116 tumoral colon; test: Uptake of FITC-labeled TAT derived transporter constructs in HepG2 and HCT-116; format: cell-based, human; details: 10 μM, 24 h
Neutrophils (CD15) = test: Flow cytometry of FITC-transporter content in primary human white blood cells: neutrophils; format: cell-based; details: 1 uM, 30 min
Excerpt: as §1

[2] = tested on: dissociated cortical primary neurons; test: Confocal microscopy of FITC-labeled TAT derivative transporters in cortical primary neurons; format: cell-based, rat; details: 500 nM, 24 hours
Procedure: 8.4 Internalization Experiments and Analysis • The time dependant internalization (uptake) of FITC-labeled TAT derived transporter constructs into cells of the HL-60 cell line was carried out with materials and methods as described above. • Briefly, HL-60 cells were incubated 30 min, 1, 6 or 24 hours with 10 μM of the TAT-derivative transporters. The cells were then washed twice with an acidic buffer (0.2 M Glycin, 0.15 M NaCl, pH 3.0) and twice with PBS. Cells were broken by the addition of RIPA lysis buffer. The relative amount of internalized peptide was then determined by reading the fluorescence intensity (Fusion Alpha plate reader; PerkinElmer) of each extract followed by background substraction and protein content normalization. […] The dissociated cortical primary neurons from P2 Sprague Dawley rats were cultured 12 days in neurobasal medium before exposure 24 hours to 500 nM of the FITC-labeled • TAT derivative transporters. The cells were washed five times with PBS on ice and then mounted in fluorsave mounting medium without prior fixation. Acquisitions were performed on LSM510 metaconfocal microscope (Zeiss). Images were processed with LSM510 software and mounted using Adobe photoshop. Visualization by confocal microscopy of labeling with 500 nM FITC-transporters (A: green). Nuclei were stained by Hoechst (B: blue).

Lymphocytes B (CD19) = test: Flow cytometry of FITC-transporter content in primary human white blood cells: lymphocytes B; format: cell-based; details: 1 uM, 30 min
Excerpt: as §1

Monocytes (CD14) = test: Flow cytometry of FITC-transporter content in primary human white blood cells: monocytes; format: cell-based; details: 1 uM, 30 min
Excerpt: as §1

[3] = Tissue distribution of C14 radiolabeled D-TAT-tagged peptides; format: in vivo, mouse; details: 1 mg/kg s.c., i.v., i.p.; 72 hours after injection
Procedure: Mice were treated via three different routes of administration (s.c., i.v., i.p.) with radiolabeled peptides with C^14 (1 mg/kg). Animals were sacrificed 72 hours after injection and processed for immunoradiography. […] This illustrates that the transporter D-TAT is responsible for the tissue distribution.

rYKRrQRRr ([dR]YKR[dR]QRR[dR]) [TAT(s2-91)]
transporter activity and kinetics of transport activity (Hela cells): highest transporter activity | accumulation in the cell (intracellular concentration) (U937 cells; 10 μM in medium): significantly higher than the concentration of the transporter construct in the medium | intracellular concentration of transporter construct subsequent to uptake (U937 cells; 2 h): 3.16 | intracellular concentration of transporter construct subsequent to uptake (U937 cells; 4 h): 4.27 | intracellular concentration of transporter construct subsequent to uptake (U937 cells; 6 h): 4.68 | intracellular concentration of transporter construct subsequent to uptake (U937 cells; 24 h): 50

rrrqrrkkr [D-TAT]
intracellular concentration of transporter construct subsequent to uptake (U937 cells; 2 h): 2.00 | intracellular concentration of transporter construct subsequent to uptake (U937 cells; 4 h): 2.24 | intracellular concentration of transporter construct subsequent to uptake (U937 cells; 6 h): 3.55 | intracellular concentration of transporter construct subsequent to uptake (U937 cells; 24 h): 17.3 | binding to cell population (Lymphocytes T (CD3)): seeming to bind more efficiently to lymphocyte T than the r3-L-TAT | binding to cell population (Lymphocytes T (CD3); listed as dTAT): binds to monocytes, neutrophils and lymphocyte T cells | uptake (internalization) (U937 lymphoma cells; 10 μM, U937, Lymphoma, 24 h): most efficient | HSPG dependency of uptake (internalization) (U937 lymphoma cells; 500 nm over 24 hours in U937 cells): HSPG-dependent | uptake (internalization) [1]: most efficient | binding to cell population (Neutrophils (CD15)): binds to monocytes, neutrophils and lymphocyte T cells | internalization seen by confocal microscopy [2]: internalized into the cytoplasm of the non stressed neurons | binding to cell population (Lymphocytes B (CD19)): less efficiently to lymphocyte B cells | binding to cell population (Monocytes (CD14)): binds to monocytes, neutrophils and lymphocyte T cells | tissue distribution (accumulation) [3]: in the liver, spleen, and bone marrow predominantly

Reference: patent publication US10023615B2, “Efficient transport into white blood cells” (priority 2008, dated 2018)
